Key:
[1] = target: T1, hRIPK1 (aa 1-375) fusion protein (Homo sapiens, UniProt Q13546); assay: ADP-Glo kinase assay: catalytic activity of RIPK1 (autophosphorylation, conversion of ATP to ADP); assay type: biochemical
T1 construct: hRIPK1 (aa 1-375) fusion protein
T1 sequence (Q13546 1-375): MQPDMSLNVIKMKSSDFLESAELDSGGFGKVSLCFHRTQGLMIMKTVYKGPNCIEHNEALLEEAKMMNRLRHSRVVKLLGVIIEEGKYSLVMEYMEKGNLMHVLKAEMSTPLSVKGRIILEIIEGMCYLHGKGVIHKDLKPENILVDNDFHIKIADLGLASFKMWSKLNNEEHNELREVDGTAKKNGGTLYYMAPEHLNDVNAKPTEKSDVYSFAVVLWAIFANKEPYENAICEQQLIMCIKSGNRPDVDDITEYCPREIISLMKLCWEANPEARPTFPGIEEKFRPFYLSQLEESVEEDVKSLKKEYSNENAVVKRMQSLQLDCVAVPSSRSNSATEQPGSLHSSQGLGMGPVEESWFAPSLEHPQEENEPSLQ
Summary of the method: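 hRIPK1 (aa 1-375) fusion protein (3.6 μg/ml final) was preincubated 30 min at rt with compound (33300-1.69 nM, 1% DMSO), then 50 μM ATP was added for 240 min at rt. ADP from autophosphorylation was measured by ADP-Glo luminescence and curves fitted by nonlinear regression.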

[2] = tested on: U937 cells; assay: Cellular assay in U937 cells: activity of RIPK1 inhibitors on TNFα/zVAD.fmk-induced cell death (necroptosis), CellTiter 96 AQueous (MTS) readout; assay type: cell-based; conditions: Homo sapiens, U-937
Summary of the method: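 Necroptosis was measured by viable-cell MTS reduction (4 h, absorbance 490 nm) after overnight (18–24 h) 37° C culture. Cell suspensions of U937 cells carried TNFα (100 ng/ml) plus zVAD.fmk (50 μM) before compound was added. A 10-point curve (10 μM–0.26 nM or 1 μM–0.07 nM) was run in duplicate, normalised to the control lacking TNFα/zVAD.fmk.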

IC50 [1] [µM]	SMILES	IC50 [2] [µM]
0.021	N#Cc1cncc([C@@H]2CCON2C(=O)[C@H]2CC[C@H](Cc3ccc(F)c(C(N)=O)c3)CC2)c1 [compound 194, trans-5-[[4-[(3S)-3-(5-cyano-3-pyridyl)isoxazolidine-2-carbonyl]cyclohexyl]methyl]-2-fluoro-benzamide]	0.01
0.016	O=C1NCc2ccc(C[C@H]3CC[C@H](C(=O)N4OCC[C@H]4c4cc(F)cc(F)c4)CC3)cc21 [compound 156, trans-6-[[4-[(3S)-3-(3,5-difluorophenyl)isoxazolidine-2-carbonyl]cyclohexyl]methyl]isoindolin-1-one]	0.006
0.017	Cc1nc2c(F)cc(C[C@H]3CC[C@H](C(=O)N4OCC[C@H]4c4cc(F)cc(C#N)c4)CC3)cn2n1 [compound 284, trans-3-fluoro-5-[(3S)-2-[4-[(8-fluoro-2-methyl-[1,2,4]triazolo[1,5-a]pyridin-6-yl)methyl]cyclohexanecarbonyl]isoxazolidin-3-yl]benzonitrile]	0.034
0.02	Cc1ccc(CC23CCC(C(=O)N4OCC[C@H]4c4cc(F)cc(C#N)c4)(CC2)C3)cc1C(N)=O [compound 270, 5-[[4-[(3S)-3-(3-cyano-5-fluoro-phenyl)isoxazolidine-2-carbonyl]norbornan-1-yl]methyl]-2-methyl-benzamide]	0.05
0.026	CC1(Oc2cnc3ccn(C[C@H]4CC[C@H](C(=O)N5OCC[C@H]5c5cc(F)cc(C#N)c5)CC4)c3c2)CC1 [compound 184, trans-3-fluoro-5-[(3S)-2-[4-[[6-(1-methylcyclopropoxy)pyrrolo[3,2-b]pyridin-1-yl]methyl]cyclohexanecarbonyl]isoxazolidin-3-yl]benzonitrile]	0.019
0.044	N#Cc1cc(F)cc([C@@H]2CCON2C(=O)[C@H]2CC[C@H](Cn3cnc4cc(F)c(C(N)=O)cc43)CC2)c1 [compound 70, trans-1-((4-((S)-3-(3-cyano-5-fluorophenyl)isoxazolidine-2-carbonyl)cyclohexyl)methyl)-5-fluoro-1H-benzo[d]imidazole-6-carboxamide]	0.403
0.023	Cc1nn(C[C@H]2CC[C@H](C(=O)N3OCC[C@H]3c3cc(F)cc(C#N)c3)CC2)c2ccccc12 [compound 61, trans-3-fluoro-5-((S)-2-(4-((3-methyl-1H-indazol-1-yl)methyl)cyclohexane-1-carbonyl)isoxazolidin-3-yl)benzonitrile]	0.011
0.026	COc1cc(C[C@H]2CC[C@H](C(=O)N3OCC[C@H]3c3cncc(F)c3)CC2)cn2nc(C)nc12 [compound 345, trans-[(3S)-3-(5-fluoropyridin-3-yl)-1,2-oxazolidin-2-yl]-[4-[(8-methoxy-2-methyl-[1,2,4]triazolo[1,5-a]pyridin-6-yl)methyl]cyclohexyl]methanone]	0.008
0.087	Cc1ccc([C@@H]2CCON2C(=O)[C@H]2CC[C@H](Cc3cnn4cc(C)nc4c3)CC2)cn1 [compound 353, trans-[4-[(2-methylimidazo[1,2-b]pyridazin-7-yl)methyl]cyclohexyl]-[(3S)-3-(6-methylpyridin-3-yl)-1,2-oxazolidin-2-yl]methanone]	0.112
0.039	N#Cc1cc(F)cc([C@@H]2CCON2C(=O)[C@H]2CC[C@H](Cn3ccc4ccncc43)CC2)c1 [compound 16, trans-3-((S)-2-(4-((1H-pyrrolo[2,3-c]pyridin-1-yl)methyl)cyclohexane-1-carbonyl)isoxazolidin-3-yl)-5-fluorobenzonitrile]	0.006
0.097	Cc1ccc(C[C@H]2CC[C@H](C(=O)N3OCC[C@H]3c3cnc(C)c(F)c3)CC2)nn1 [compound 388, trans-[(3S)-3-(5-fluoro-6-methylpyridin-3-yl)-1,2-oxazolidin-2-yl]-[4-[(6-methylpyridazin-3-yl)methyl]cyclohexyl]methanone]	0.176
0.028	N#Cc1cc(F)cc([C@@H]2CCON2C(=O)[C@H]2CC[C@H](Cn3ccc4ncc(Cl)cc43)CC2)c1 [compound 19, trans-3-((S)-2-(4-((6-chloro-1H-pyrrolo[3,2-b]pyridin-1-yl)methyl)cyclohexane-1-carbonyl)isoxazolidin-3-yl)-5-fluorobenzonitrile]	0.005
0.031	O=C([C@H]1C[C@H](Cn2cnc3cc(F)ccc32)C1)N1OCC[C@H]1c1cc(F)cc(F)c1 [compound 115, trans-((S)-3-(3,5-difluorophenyl)isoxazolidin-2-yl)(3-((5-fluoro-1H-benzo[d]imidazol-1-yl)methyl)cyclobutyl)methanone]	0.138
0.027	N#Cc1cncc([C@@H]2CCON2C(=O)[C@H]2CC[C@H](Cn3ccc4ncc(C#N)cc43)CC2)c1 [compound 108, trans-1-((4-((S)-3-(5-cyanopyridin-3-yl)isoxazolidine-2-carbonyl)cyclohexyl)methyl)-1H-pyrrolo[3,2-b]pyridine-6-carbonitrile]	0.018
0.234	Cc1ccc([C@@H]2CCON2C(=O)[C@H]2CC[C@H](Cc3cc(F)c4nnc(C)n4c3)CC2)cn1 [compound 364, trans-[4-(8-Fluoro-3-methyl-[1,2,4]triazolo[4,3-a]pyridin-6-ylmethyl)-cyclohexyl]-[(S)-3-(6-methyl-pyridin-3-yl)-isoxazolidin-2-yl]-methanone]	0.491
0.085	Cc1ncc(C[C@H]2CC[C@H](C(=O)N3OCC[C@H]3c3cnc(C)c(F)c3)CC2)c(C(F)(F)F)n1 [compound 399, [(3S)-3-(5-fluoro-6-methylpyridin-3-yl)-1,2-oxazolidin-2-yl]-[4-[[2-methyl-4-(trifluoromethyl)pyrimidin-5-yl]methyl]cyclohexyl]methanone]	0.274
0.068	N#Cc1cnc2cn(C[C@H]3CC[C@H](C(=O)N4OCC[C@H]4c4cc(F)cc(F)c4)CC3)nc2c1 [compound 25, trans-2-((4-((S)-3-(3,5-difluorophenyl)isoxazolidine-2-carbonyl)cyclohexyl)methyl)-2H-pyrazolo[4,3-b]pyridine-6-carbonitrile]	0.154
0.059	Cc1nc([C@@H]2CCON2C(=O)[C@H]2CC[C@H](Cc3cc(C)c4ncnn4c3)CC2)cs1 [compound 362, trans-[(S)-3-(2-Methyl-thiazol-4-yl)-isoxazolidin-2-yl]-[4-(8-methyl-[1,2,4]triazolo[1,5-a]pyridin-6-ylmethyl)-cyclohexyl]-methanone]	0.052
0.013	Cc1ccc(C[C@H]2CC[C@H](C(=O)N3OCC[C@H]3c3cc(F)cc(F)c3)CC2)cc1C(N)=O [compound 132, trans-5-[[4-[(3S)-3-(3,5-difluorophenyl)isoxazolidine-2-carbonyl]cyclohexyl]methyl]-2-methyl-benzamide]	0.004
0.018	Cc1cc([C@@H]2CCON2C(=O)[C@H]2CC[C@H](Cn3ccc4c(F)cc(C#N)cc43)CC2)co1 [compound 47, trans-4-fluoro-1-((4-((S)-3-(5-methylfuran-3-yl)isoxazolidine-2-carbonyl)cyclohexyl)methyl)-1H-indole-6-carbonitrile]	0.003
0.019	Cc1cc(C[C@H]2CC[C@H](C(=O)N3OCC[C@H]3c3cc(F)cc(C#N)c3)CC2)cn2c(C)nnc12 [compound 300, trans-3-[(3S)-2-[4-[(3,8-dimethyl-[1,2,4]triazolo[4,3-a]pyridin-6-yl)methyl]cyclohexanecarbonyl]-1,2-oxazolidin-3-yl]-5-fluorobenzonitrile]	0.013
0.031	Cc1nc2c(Cl)cc(C[C@H]3CC[C@H](C(=O)N4OCC[C@H]4c4cnc(C)c(F)c4)CC3)cn2n1 [compound 381, [4-[(8-chloro-2-methyl-[1,2,4]triazolo[1,5-a]pyridin-6-yl)methyl]cyclohexyl]-[(3S)-3-(5-fluoro-6-methylpyridin-3-yl)-1,2-oxazolidin-2-yl]methanone]	0.008
0.027	Cc1cn(C[C@H]2CC[C@H](C(=O)N3OCC[C@H]3c3cc(F)cc(F)c3)CC2)c2cc(C(N)=O)ccc12 [compound 111, trans-1-((4-((S)-3-(3,5-difluorophenyl)isoxazolidine-2-carbonyl)cyclohexyl)methyl)-3-methyl-1H-indole-6-carboxamide]	0.01
0.041	COc1ccc2c(ccn2C[C@H]2CC[C@H](C(=O)N3OCC[C@H]3c3cc(F)cc(C#N)c3)CC2)n1 [compound 120, trans-3-fluoro-5-[(3S)-2-[4-[(5-methoxypyrrolo[3,2-b]pyridin-1-yl)methyl]cyclohexanecarbonyl]isoxazolidin-3-yl]benzonitrile]	0.006
0.016	O=C([C@H]1CC[C@H](Cn2ccc3cc(F)ccc32)CC1)N1OCC[C@H]1c1cc(F)cc(F)c1 [compound 96, trans-((S)-3-(3,5-difluorophenyl)isoxazolidin-2-yl)(4-((5-fluoro-1H-indol-1-yl)methyl)cyclohexyl)methanone]	0.002

Reference: US20260158009A1 (GENZYME CORPORATION, priority 2023, published 2026)
